The values below come from US20260256716A1, “COMPOSITIONS AND METHODS OF USE THEREOF” (Board of Supervisors of Louisiana State University and …, priority 2023, published 2026).

In assay [1] the test system is phosphorylated myosin light chain. The assay can be described thus: Western blot of phosphorylated myosin light chain (MLC) in ARPE-19 cells under hyperglycemic conditions. In kind it is cell-based, human. Here is the method: A Hallmark of Age-Associated Ocular and Neurodegenerative Disorders is Cytoskeletal Alteration and Induction of CONTRACTILE Stress Fiber Formation. Expression and activation via phosphorylation of Myosin Light Chain (MLC), is a biomarker of disease development. ARPE-19 cells and ARPE-19 cells specifying 5-HT2AR knockouts were plated in nutrient rich media (DMEM; 7% FCS) overnight. Cells were fixed, permeabilized, and stained phalloidin and α-phosphorylated-Myosin light chain. Cytoskeletal elements were then visualized by fluorescent microscopy to visualize actin fiber cytoskeletal structures (phalloidin, red) and contractile phosphorylated myosin light chain (green) via fluorescent microscopy. […] ARPE-19 cells were cultured under hyperglycemic conditions in nutrient rich media (DMEM High glucose; 7% FCS) overnight either in the absence or presence of 5-HT2A receptor agonists R-DOI and 2CiBu at 10 nm or 100 nM concentrations. The relative expression of the activated disease biomarker contractile phosphorylated myosin light chain was determined using specific antibodies and western blot analysis. 5-HT2A agonists. […] Therefore, 5-HT2A agonism at low concentrations have the potential to prevent and reverse deleterious cytoskeletal events that can be induced under hyperglycemic conditions, such as in diabetics.
This can be consistent with 2C-iBu being able to regulate IOP and that 5HT2A agonists prevented edema formation and disruption of corneal architecture in a model of herpetic keratitis.

In another assay the test system is AMP kinase. The assay is described as follows: AMP kinase activation in treated cells. To be noted: low nM concentrations. In kind it is cell-based.
Assay [2] has as its system ARPE-19 cells. The assay can be described thus: ATP luciferase assay in ARPE-19 cells. It is filed as cell-based, human.
For another assay, the system named is ARPE cells. The assay is described as follows: Blue light induced mitochondrial fragmentation in ARPE cells (mitotracker green). It is filed as cell-based, human. The conditions noted are these: 100 nM; 48 hours; hyperglycemic conditions; blue light 400 nm. Here is the method:
ARPE cells grown under hyperglycemic conditions were plated and mock treated or treated with R-DOI or 2C-iBu at 100 nM. 48 hours post treatment, mitochondria in live cells were visualized by staining mitochondria with mitotracker green (green). Once stained, live ARPE cells were exposed to focused blue light at 400 nm and the ability of drugs to protect against blue light damage-induced mitochondrial fragmentation was assessed.

The next assay concerns A549 cells. The assay is described as follows: Cell viability after cumene peroxide oxidative stress (Hoechst / propidium iodide). In kind it is cell-based. Here is the method: A549 cells were treated with the indicated concentrations of R-DOI (panel A) or 2C-iBu (panel B) and subsequently exposed to cumene peroxide to oxidatively stress cells. Cell viability was visualized by staining with Hoescht (Blue) to mark total cells (live plus dead) and propidium iodide (red) to mark dead cells.

In assay [3] the test system is ARPE-19 cells. The assay is described as follows: ARPE-19 proliferation (DAPI cell number, fold change in growth). It is filed as cell-based, human. To be noted: for cellular replication / proliferation: physiologically relevant serotonin levels, 72 h. Here is the method:
Specific 5-HT2A Receptor Activation via Model Phenethylamines, like R-DOI. […] ARPE-19 cells were plated in nutrient rich media, DMEM, containing 7% dialyzed FCS and then starved in DMEM media containing 0.5% dialyzed FCS. Cells were then changed to 7% dialyzed FCS DMEM media containing physiolocial relevant levels of serotonin at varying concentrations and grown for 72-hours. Cell numbers were determined through DNA staining with DAPI and fold change in growth was determined from baseline readings at 24-hours. To assess if agonists of the 5HT2A receptor could enhance cell health and proliferation specifically through the 5-HT2A receptor, the model 5-HT2A receptor agonist, R-DOI was added at either 0.1 nM or 1 nM. […] Also, included is a summary of physiological serotonin and 5-HT2A receptor agonist/antagonist outcomes on cellular proliferation. This increase in proliferation promotes the formation of a compact RPE-monolayer which is important for maintaining a healthy blood-retinal barrier and can occur with low dose administration of 5-HT2A receptor agonists.
ARPE-19 cells were plated in nutrient rich media, DMEM, containing 7% dialyzed FCS and then starved in DMEM media containing 0.5% dialyzed FCS. Cells were then changed to 7% dialyzed FCS DMEM media containing physiological relevant levels of serotonin at varying concentrations and grown for 72-hours. Cell numbers were determined through DNA staining with DAPI and fold change in growth was determined from baseline readings at 24-hours. To assess if serotonin enhances cell health and proliferation specifically through the 5-HT2A receptor, the 5-HT2A receptor antagonist, M100,907 at 10 nM was included during serotonin induction.

Assay [4] relates to ARPE-19 cells. The assay can be described thus: SA-β-Gal cellular senescence in ARPE-19 cells in nutrient rich media (DMEM). It is filed as cell-based, human. To be noted: 10 nM in starvation media overnight, then DMEM 7% FCS 72 hours. Here is the method:
ARPE-19 cells in nutrient rich media (DMEM; 7% FCS) were seeded overnight prior to being replaced with starvation media (DMEM; 0.5% FCS) containing 10 nM R-DOI or 10 nM M100,907. After overnight incubation in starvation media with drug, cells were swapped to DMEM 7% FCS media for 72-hours. After the 72-hour incubation, cells were fixed and stained for SA-β-Gal for 6-hours. Cells nuclei were then stained with DAPI for total-cell enumeration. SA-β-Gal positive cells, and total cells per frame, were quantified by microscopy.

Assay [5] deals with ARPE-19 cells. The assay is described as follows: Hyperglycemia induced SA-β-Gal cellular senescence in ARPE-19 cells (HPLM). In kind it is cell-based, human. Here is the method:
Consistent with Retinal Deterioration by Glucose-Induced Cellular Senescence in the Diabetic Population, Hyperglycemic conditions induce increased disease promoting Cellular Senescence that is abrogated by low nM concentrations of the Representative 5-HT2A Receptor Agonist, R-DOI Returning to Base-line Homeostatic Levels. ARPE-19 cells in physiologically relevant media (HPLM; 7% FCS) were seeded overnight prior to being replaced with starvation media (HPLM 0.5% FCS) containing 10 nM R-DOI. After overnight incubation in starvation media, cells were swapped to media containing diabetic blood glucose levels (HPLM 7% FCS containing 5 mM, 10 mM, 20 mM, or 30 mM glucose) for 72-hours. After the 72-hour incubation, cells were fixed and stained for SA-β-Gal for 6-hours. Cells nuclei were then stained with DAPI for total-cell enumeration. SA-β-Gal positive cells, and total cells per frame, were quantified by microscopy. Pathological/diabetic glucose concentrations induce cellular senescence. 5-HT2A receptor agonism alleviates glucose-induced senescence at diabetic blood glucose levels. […]
Effects of specific phenethylamine 5-HT2A receptor agonists on reduction of Hyperglycemia induced Disease Promoting Cellular Senescence: Inhibition of Cell Senescence and Disease Processes are Drug and Dose Dependent. […] SA-3-Gal positive cells, and total cells per frame, were quantified by microscopy. For each 5-HT2A agonist assessed, the % of senescent cells is expressed relative to the hyperglycemic control. […]
Inhibition of Cell Senescence and Disease Processes are Drug and Dose Dependent. […] SA-β-Gal positive cells, and total cells per frame, were quantified by microscopy. For each 5-HT2A agonist assessed, the % of senescent cells is expressed relative to the hyperglycemic control. […]

The subject of assay [6] is ARPE-19 cells. The assay is described as follows: FACS forward scatter cell size of ARPE-19 cells. In kind it is cell-based, human. The conditions noted are these: treated overnight, then 4 days in normal media. The text has this: Upon initial seeding of potential 5HT2A KD cells there was a readily apparent alteration of normal ARPE cell morphology. Cells appeared flattened, extended, highly attached and enlarged. Each cell line isolate maintained this enlarged and flattened cell morphology as shown to the right and quantified below. […] This markedly altered morphology is present in cells that have begun to undergo changes related to aging, including evolving a senescent or pre-senescent phenotype. Therefore, FACS analysis of 5HT2A KD cells was performed comparing the cell size of Forward Scatter to ARPE-19 cells, treated overnight with Etoposide, an inhibitor of topoisomerase, and a known inducer of cell senescence, and then cultured for 4 days in normal media in the absence of etoposide. […] Further an increase in particles of “cell degranulation” sizing was also observed in all conditions compared to ARPE-19 WT controls.

“Also recorded” adds a separate entry of the source.

For `COc1cc(CC(C)C)c(OC)cc1CCN` [2C-iBu, 2,5-Dimethoxy-4-isobutylphenethylamine], in assay [1] (ARPE-19, DMEM High glucose 7% FCS overnight, 10 nM, western blot), the “hyperglycemia induced phosphorylated MLC levels” value is reported as “suppressed hyperglycemia induced phosphorylated MLC levels”. Further, the “phosphorylation of MLC” value in assay [1] (WT ARPE-19 in media with hyperglycemic glucose (17.5 mM), low dose, not high doses) was “inhibited”. Also, in the assay on AMP kinase, the AMP kinase activation result is reported as “activation of AMP kinase”. Besides, in the assay on ARPE-19 cells [2] (10 fold dilutions 100 nM to 0.1 nM), the “ATP levels relative to Mock treated ARPE-19 cells” value was “Increase Mitochondrial Function And ATP Production”. Moreover, in the assay with ARPE-19 cells [2] (ARPE WT cells, 24 h after administration), the “production of ATP” value is “enhanced production of ATP”. The “blue light induced mitochondrial fragmentation/damage” value in the assay with ARPE cells was “Inhibit Blue Light and Oxidative Stress Induced Mitochondrial Fragmentation/Damage”. Also, the “oxidative stress-induced cell death” value with A549 cells is reported as “protected cells from oxidative stress-induced cell death”.
In the case of `COc1cccc([C@H](O)C2CCN(CCc3ccc(F)cc3)CC2)c1OC` [M100,907, reference compound], the serotonin-mediated enhanced replication result with ARPE-19 cells [3] (antagonist at 10 nM during serotonin induction) is recorded as “abrogated serotonin-mediated enhanced replication”. Further, the “cellular senescence (SA-β-Gal positive cells)” value in the assay with ARPE-19 cells [4] was “Increases Proportions of Cellular Senescence”.
Consider `COc1cc(C(F)(F)F)c(OC)cc1C[C@@H](C)N` [R-DOTFM], for which, in the assay on ARPE-19 cells [5], the “concentration at which disease is exacerbated” value is ≥ 10 nM. The “hyperglycemia induced cellular senescence relative to hyperglycemic control” value in the assay with ARPE-19 cells [5] (1 uM to 0.1 nM, HPLM 30 mM glucose, 72 hours) is “enhances rather than inhibits Aging-Associated Disease Processes and Cellular Senescence”.
For the compound `NCCc1c[nH]c2ccc(O)cc12` [Serotonin, 5-hydroxytryptamine], the “cellular replication / proliferation” value with ARPE-19 cells [3] was “Enhances Cellular Health and Replication”; with ARPE-19 cells [3] (listed as 5-HT), “increase cellular replication; also recorded: increase ARPE-19 Proliferation”; in the assay on ARPE-19 cells [3] (listed as serotonin), “enhance cellular replication patterns; also recorded: enhance replication of cells”.
Take `COc1cc([C@@H]2c3cc4c(cc3[C@@H](O[C@@H]3O[C@@H]5CO[C@@H](C)O[C@H]5[C@H](O)[C@H]3O)[C@H]3COC(=O)[C@H]23)OCO4)cc(OC)c1O` [etoposide]: in the assay with ARPE-19 cells [6], the “cell size (forward scatter)” value was “increased cell size”.
